Where a SMILES comes first, the peptide text is derived from it. The star is where a group is joined. Cbz = O=C(OCc1ccccc1)*; OtBu = CC(C)(C)O*

Here are results for four compounds from US20110009332A1, “Therapeutic Treatment Of Wounds” (SOUTHWEST RESEARCH INSTITUTE, priority 2009, published 2011).

For the test, the system named is BMP-1. Kind of test: BMP-1 gene expression (qPCR, normalized over 18S) in human dermal fibroblasts. Format: cell-based. Here is the method:
An examination of gene expression of BMP-1 was conducted using a number of proteasome inhibitors including, proteasome inhibitor-1, curcumin, MG-132 and bortezomib. Human neonatal dermal fibroblasts (AllCells, Catalog No. HN006001) were maintained in Dulbecco's modified Eagle's medium (DMEM) supplemented with 10% fetal bovine serum. Early passage cells were plated at 2×10^4 cells/cm^2 and grown in humidified 5% CO2 at 37° C. for 24 hours. Spent media was replaced the following day with assay media including Proteasome inhibitor-1 was added in DMEM at 1 μM and 0.1 μM. Untreated cells were used as the control group. For the human osteogenesis PCR array, the experimental group was treated only at 1 μM. In addition, in separate trials, spent media was replace by assay media of curcumin added in DMEM at 10 μM and 100 μM, MG-132 in DMEM at 0.1 μM and 1 μM, and bortezomib in DMEM at 0.1 μm and 1 μM.
Phenol-chloroform extraction was performed to isolate the total RNA for real time polymerase chain reaction array. More specifically, the total RNA was prepared using TRI REAGENT (Ambion, product number 9738), wherein the total RNA was obtained from the human neonatal dermal fibroblasts. Note that isolation was performed as per the instructions provided with the TRI REAGENT. The RNA was used for subsequent quantitative polymerase chain reaction (qPRC) gene expression of BMP1 measured using hydrolysis probes (TAQMAN probes available from Applied Biosystems) as described further below.
Concentration and integrity of the obtained total RNA was assessed by absorbance in a spectrophotometer at 260 nm and 280 nm and by electrophoresis in 1% agarose with formaldehyde loading dye. For TAQMAN gene expression assays, cDNA was synthesized from 2 μg of total RNA using the High Capacity cDNA Reverse Transcription Kit (Applied Biosystems, product number 4368814), again following the protocol supplied with the kit. The resulting cDNA was diluted 1:10.
For TAQMAN gene expression, gene-specific fluorescent labeled TAQMAN primers for FAM-BMP1 (Applied Biosystems, product Hs0098677.g1) and TAQMAN reference VIC-18S ribosomal RNA (Applied Biosystems, product number 4310893E) were used to target the gene of interest. A cocktail of universal master mix (Applied Biosystems, product number 4369016) was prepared individually for both set of primers which contained Taq Polymerase, dNTPs, and buffer. Template cDNA's were added separately to respective individual wells in triplicate samples. PCR was performed on StepOne Plus Real Time System instrument (Applied Biosystems). The amplification program consisted of 1 cycle of 95° C. with 10 minute hold (hot start) followed by 50 cycles of 95° C. with 15 second annealing hold and 1 minute 60° C. specified acquisition hold.
For human osteogenisis PCR array, total RNA was prepared using silica matrix purification using RNEASY MINI KIT (Qiagen, product number 74101) according to the manufacturer's recommendations. cDNA was synthesized from 1 μg of purified DNA-free RNA accordingly to RT^2First Strand Kit (SABiosciences, C-03). The resulting cDNA was diluted 1:30 and amplified. The procedure for the PCR array using real-time PCR is based on the RT^2 Profiler PCR array system instructions for Human Osteogenesis (SABiosciences, product number PAHS-026C). A cocktail reaction mix was setup as recommended by the PCR manufacturer (SABiosceiences, product number PA-012). PCR was performed using the same temperature parameters as used with the StepOne Plus Real Time System instrument. The Ct value of endogenous reference gene (i.e. 18s) was used to control for input RNA and then used to normalize target gene (i.e. BMP-1) tested from the same cDNA sample (Δ Ct), and then calibrated to an internal reference sample (ΔΔCt). Change in gene expression was determined by the expression 2̂-(ΔΔCt). […]
A general note: Real-time PCR tracks product formation cycle by cycle.

Where [1] appears, read: 0.1 μM inhibitor, FIG. 27, nontreated approximately 1.52 (MG132) / 1.50 (bortezomib), may not be statistically significant.
Setting [2] is: 1 μM inhibitor, FIG. 27, nontreated approximately 1.52 (MG132) / 1.50 (bortezomib), may not be statistically significant.

`CC(C)C[C@H](NC(=O)[C@H](Cc1ccccc1)NC(=O)c1cnccn1)B(O)O` [bortezomib]: the “BMP-1/18S mRNA levels” value is, setting by setting: under setting [1], 1.27 a.u; under setting [2], 1.27 a.u.
Take `CC(C)C[C@@H](C=O)NC(=O)[C@H](CC(C)C)NC(=O)[C@H](CC(C)C)NC(=O)OCc1ccccc1` [MG132] (Cbz-Leu-Leu-Leu-aldehyde): the “BMP-1/18S mRNA levels” value is 1.10 a.u under setting [1] and 1.09 a.u under setting [2].
With `CC[C@H](C)[C@H](NC(=O)OCc1ccccc1)C(=O)N[C@@H](CCC(=O)OC(C)(C)C)C(=O)N[C@@H](C)C(=O)N[C@H](C=O)CC(C)C` [PS-1, Z-Ile-Glu(OBu^t)-Ala-Leu-H] (Cbz-IE(OtBu)AL-aldehyde), the “BMP-1/18S mRNA levels” value is, setting by setting: (0.1 μM PS-1, FIG. 25, nontreated approximately 1.26) 0.436 a.u; (1.0 μM PS-1, FIG. 25, nontreated approximately 1.26) 0.480 a.u.
For the compound `COc1cc(/C=C/C(=O)CC(=O)/C=C/c2ccc(O)c(OC)c2)ccc1O` [curcumin], the “BMP-1/18S mRNA levels” value by setting is: (10 μM curcumin, FIG. 26, nontreated approximately 1.26) 1.68 a.u; (100 μM curcumin, FIG. 26, nontreated approximately 1.26) 0.882 a.u.
